System: Pseudomonas aeruginosa PAM1001
Experiment: microbe, parasite or virus in culture
Assay type: cell-based
Protocol: The activity of efflux pump inhibitors (EPI) in combination with fluoroquinolones, such as levofloxacin, is assessed by the checkerboard assay (Antimicrobial Combinations. In Antibiotics in Laboratory Medicine, Ed. Victor Lorian, M. D., Fourth edition, 1996, pp 333-338) using broth microdilution method performed as recommended by the NCCLS (National Committee for Clinical Laboratory Standards (NCCLS). 1997. Methods for Dilution of Antimicrobial Susceptibility Tests for Bacteria That Grow Aerobically--Fourth Edition; Approved Standard. NCCLS Document M7-A4, Vol 17 No.2). The test organism used is Pseudomonas aeruginosa PAM1001.
In this assay, multiple dilutions of two drugs, namely the EPI and levofloxacin, are being tested, alone and in combination, at concentrations equal to, above and below their respective minimal inhibitory concentrations (MICs).
Stock solutions are further diluted, according to the needs of a particular assay, in Mueller Hinton Broth (MHB). Stock solution can be stored at -80° C. Quinolones are solubilized according to the instructions of the manufacturers, at a concentration of 1 mg/ml. They are then further diluted in MHB. Stock solution can be stored at -80° C.
The checkerboard assay is performed in microtiter plates. Levofloxacin is diluted in the x axis, each column containing a single concentration of levofloxacin. The EPI is diluted in the y axis, each row containing an equal concentration of EPI. The result of these manipulations is that each well of the microtiter plate contains a unique combination of concentrations of the two agents. Each EPI are tested independently.
The assay is performed in MHB with a final bacterial inoculum of 5×10^5 CFU/ml (from an early-log phase culture). Microtiter plates are incubated during 20 h at 35° C. and are read using a microtiterplate reader (Molecular Devices) at 650 nm as well as visual observation using a microtiterplate reading mirror.

[1] = Table 1, EPI Conc. μg/ml (number not given; column between 10 and 40 μg/ml)
[2] = Table 2, EPI Conc. μg/ml (number not given; column between 10 and 40 μg/ml)
[3] = Table 3, EPI Conc. μg/ml (number not given; column between 10 and 40 μg/ml)
[4] = Table 4, EPI Conc. μg/ml (number not given; column between 10 and 40 μg/ml)

Row | Compound | Levofloxacin MIC Against P. aeruginosa PAM1001 in Presence of Efflux Pump Inhibitor (EPI), Minimum Inhibitory Concentration (Table 1, EPI Conc. 0 μg/ml) [µg/mL] | Levofloxacin MIC Against P. aeruginosa PAM1001 in Presence of Efflux Pump Inhibitor (EPI), Minimum Inhibitory Concentration (Table 1, EPI Conc. 0.625 μg/ml) [µg/mL] | Levofloxacin MIC Against P. aeruginosa PAM1001 in Presence of Efflux Pump Inhibitor (EPI), Minimum Inhibitory Concentration (Table 1, EPI Conc. 5 μg/ml) [µg/mL] | Levofloxacin MIC Against P. aeruginosa PAM1001 in Presence of Efflux Pump Inhibitor (EPI), Minimum Inhibitory Concentration (Table 1, EPI Conc. 10 μg/ml) [µg/mL] | Levofloxacin MIC Against P. aeruginosa PAM1001 in Presence of Efflux Pump Inhibitor (EPI), Minimum Inhibitory Concentration (Table 1, EPI Conc. 40 μg/ml) [µg/mL] | Levofloxacin MIC Against P. aeruginosa PAM1001 in Presence of Efflux Pump Inhibitor (EPI), Minimum Inhibitory Concentration [1] [µg/mL] | Levofloxacin MIC Against P. aeruginosa PAM1001 in Presence of Efflux Pump Inhibitor (EPI), Minimum Inhibitory Concentration (Table 2, EPI Conc. 0 μg/ml) [µg/mL] | Levofloxacin MIC Against P. aeruginosa PAM1001 in Presence of Efflux Pump Inhibitor (EPI), Minimum Inhibitory Concentration (Table 2, EPI Conc. 0.625 μg/ml) [µg/mL] | Levofloxacin MIC Against P. aeruginosa PAM1001 in Presence of Efflux Pump Inhibitor (EPI), Minimum Inhibitory Concentration (Table 2, EPI Conc. 5 μg/ml) [µg/mL] | Levofloxacin MIC Against P. aeruginosa PAM1001 in Presence of Efflux Pump Inhibitor (EPI), Minimum Inhibitory Concentration (Table 2, EPI Conc. 10 μg/ml) [µg/mL] | Levofloxacin MIC Against P. aeruginosa PAM1001 in Presence of Efflux Pump Inhibitor (EPI), Minimum Inhibitory Concentration (Table 2, EPI Conc. 40 μg/ml) [µg/mL] | Levofloxacin MIC Against P. aeruginosa PAM1001 in Presence of Efflux Pump Inhibitor (EPI), Minimum Inhibitory Concentration (Table 2, EPI Conc. […]) [µg/mL] | Levofloxacin MIC Against P. aeruginosa PAM1001 in Presence of Efflux Pump Inhibitor (EPI), Minimum Inhibitory Concentration [2] [µg/mL] | Levofloxacin MIC Against P. aeruginosa PAM1001 in Presence of Efflux Pump Inhibitor (EPI), Minimum Inhibitory Concentration (Table 3, EPI Conc. 0 μg/ml) [µg/mL] | Levofloxacin MIC Against P. aeruginosa PAM1001 in Presence of Efflux Pump Inhibitor (EPI), Minimum Inhibitory Concentration (Table 3, EPI Conc. 0.625 μg/ml) [µg/mL] | Levofloxacin MIC Against P. aeruginosa PAM1001 in Presence of Efflux Pump Inhibitor (EPI), Minimum Inhibitory Concentration (Table 3, EPI Conc. 5 μg/ml) [µg/mL] | Levofloxacin MIC Against P. aeruginosa PAM1001 in Presence of Efflux Pump Inhibitor (EPI), Minimum Inhibitory Concentration (Table 3, EPI Conc. 10 μg/ml) [µg/mL] | Levofloxacin MIC Against P. aeruginosa PAM1001 in Presence of Efflux Pump Inhibitor (EPI), Minimum Inhibitory Concentration [3] [µg/mL] | Levofloxacin MIC Against P. aeruginosa PAM1001 in Presence of Efflux Pump Inhibitor (EPI), Minimum Inhibitory Concentration (Table 4, EPI Conc. 0 μg/ml) [µg/mL] | Levofloxacin MIC Against P. aeruginosa PAM1001 in Presence of Efflux Pump Inhibitor (EPI), Minimum Inhibitory Concentration (Table 4, EPI Conc. 0.625 μg/ml) [µg/mL] | further results
1 | 4-(O-Methylcarboxyamido)phenylalanyl-Nα -methylornithine 2-naphthylamide [Compound 32 (Table 1)] | 4 | 4 | 0.50 | 0.125 | 0.06 | 0.06 | 4 | 4 | 2 | 0.50 | 0.03 | 4 | 0.25 |  |  |  |  |  |  |  | 
2 | NCCCC(N)C(=O)N(CCCc1ccccc1)CCC(=O)Nc1ccc2ccccc2c1 (stereo not drawn) [Compound 21 (Table 3), Omithyl-β-(N-phenylpropyl)alanine 2-naphthylamide] | 4 | 4 | 1 | 1 | 0.25 | 0.50 | 4 | 4 | 2 |  | 0.03 | 4 | 0.03 | 4 | 4 | 0.03 | 0.03 | 0.06 | 4 | 4 | Levofloxacin MIC Against P. aeruginosa PAM1001 in Presence of Efflux Pump Inhibitor (EPI), Minimum Inhibitory Concentration (Table 3, EPI Conc. […]): 2 µg/mL; Levofloxacin MIC Against P. aeruginosa PAM1001 in Presence of Efflux Pump Inhibitor (EPI), Minimum Inhibitory Concentration (Table 4, EPI Conc. 5 μg/ml): 0.50 µg/mL; Levofloxacin MIC Against P. aeruginosa PAM1001 in Presence of Efflux Pump Inhibitor (EPI), Minimum Inhibitory Concentration (Table 4, EPI Conc. 40 μg/ml): 0.015 µg/mL; Levofloxacin MIC Against P. aeruginosa PAM1001 in Presence of Efflux Pump Inhibitor (EPI), Minimum Inhibitory Concentration (Table 4, EPI Conc. […]): 4 µg/mL; Levofloxacin MIC Against P. aeruginosa PAM1001 in Presence of Efflux Pump Inhibitor (EPI), Minimum Inhibitory Concentration [4]: 0.015 µg/mL
3 | C[C@H]1COc2c(N3CCN(C)CC3)c(F)cc3c(=O)c(C(=O)O)cn1c23 [levofloxacin, reference compound] |  |  |  |  |  |  |  |  |  |  |  |  |  |  |  |  |  |  |  |  | MIC (Pseudomonas aeruginosa, PAM1001, read-out: MIC of levofloxacin against P. aeruginosa PAM1001): 4 µg/mL
4 | D-Lysyl-β-N-(3,3-Dimethylbutyl)alanine 2-Naphthylamide Trifluoroacetate [Example 30] | 4 | 4 | 4 | 2 | 0.03 | 0.50 | 4 | 4 | 0.25 | 0.03 | 0.03 |  | 0.03 | 4 | 4 | 0.25 | 0.015 | 0.015 | 4 | 4 | Levofloxacin MIC Against P. aeruginosa PAM1001 in Presence of Efflux Pump Inhibitor (EPI), Minimum Inhibitory Concentration (Table 1, EPI Conc. […]): 4 µg/mL; Levofloxacin MIC Against P. aeruginosa PAM1001 in Presence of Efflux Pump Inhibitor (EPI), Minimum Inhibitory Concentration (Table 3, EPI Conc. 40 μg/ml): 0.015 µg/mL; Levofloxacin MIC Against P. aeruginosa PAM1001 in Presence of Efflux Pump Inhibitor (EPI), Minimum Inhibitory Concentration (Table 4, EPI Conc. 5 μg/ml): 0.03 µg/mL; Levofloxacin MIC Against P. aeruginosa PAM1001 in Presence of Efflux Pump Inhibitor (EPI), Minimum Inhibitory Concentration (Table 4, EPI Conc. 10 μg/ml): 0.03 µg/mL; Levofloxacin MIC Against P. aeruginosa PAM1001 in Presence of Efflux Pump Inhibitor (EPI), Minimum Inhibitory Concentration (Table 4, EPI Conc. 40 μg/ml): 0.015 µg/mL; Levofloxacin MIC Against P. aeruginosa PAM1001 in Presence of Efflux Pump Inhibitor (EPI), Minimum Inhibitory Concentration [4]: 0.03 µg/mL
5 | D-Lysyl-β-N-(4-Methylphenethyl)alanine Quinoline-2-amide TFA [Example 22] | 4 | 4 | 2 | 1 | 0.125 | 0.125 | 4 | 4 | 1 | 0.25 | 0.03 | 4 | 0.06 | 4 | 4 | 1 | 0.125 | 0.03 | 4 | 4 | Levofloxacin MIC Against P. aeruginosa PAM1001 in Presence of Efflux Pump Inhibitor (EPI), Minimum Inhibitory Concentration (Table 1, EPI Conc. […]): 4 µg/mL; Levofloxacin MIC Against P. aeruginosa PAM1001 in Presence of Efflux Pump Inhibitor (EPI), Minimum Inhibitory Concentration (Table 3, EPI Conc. 40 μg/ml): 0.06 µg/mL; Levofloxacin MIC Against P. aeruginosa PAM1001 in Presence of Efflux Pump Inhibitor (EPI), Minimum Inhibitory Concentration (Table 4, EPI Conc. 5 μg/ml): 4 µg/mL; Levofloxacin MIC Against P. aeruginosa PAM1001 in Presence of Efflux Pump Inhibitor (EPI), Minimum Inhibitory Concentration (Table 4, EPI Conc. 10 μg/ml): 2 µg/mL; Levofloxacin MIC Against P. aeruginosa PAM1001 in Presence of Efflux Pump Inhibitor (EPI), Minimum Inhibitory Concentration (Table 4, EPI Conc. 40 μg/ml): 0.50 µg/mL; Levofloxacin MIC Against P. aeruginosa PAM1001 in Presence of Efflux Pump Inhibitor (EPI), Minimum Inhibitory Concentration (Table 4, EPI Conc. […]): 4 µg/mL; Levofloxacin MIC Against P. aeruginosa PAM1001 in Presence of Efflux Pump Inhibitor (EPI), Minimum Inhibitory Concentration [4]: 1 µg/mL

Source: patent publication US6114310A, “Efflux pump inhibitors” (priority 1998, dated 2000)
